From patent US20050165068A1, “Compounds, in particularly of urea derivatives or esters of haloacetamidobenzoic acid and use thereof for the treatment of parasitic diseases” (priority 2002, published 2005)
≈ marks a conversion by molar mass, not a printed value. Read-outs that look alike come from different tables or passages of the source.

Key:
mouse microphages = details: times less on mouse microphages than on the parasite
Method: (§3) A tetrazolium salt (MTT) has been used as marker. In the case of L. mexicana, the molecules were evaluated relative to the intracellular amastigote stage (macrophages of Balb/c), the stage encountered in patients.

[1] = system: promastigote phase of Leishmania; details: 96 hours of contact, MTT marker; values of FIG. 1 not given
[2] = system: MRC5 line (normal tissue of fetal lung); details: times less for MRC5 line than on the parasite
Method: as §3

[3] = system: Trypanosoma cruzi Peruvian strain
Method: The in vivo anti-Trypanosoma activity of MF 29 has also been studied. Mice were infected with Trypanosoma cruzi Peruvian strain by intravenous route. Four days post-infection, the mice are treated with MF 29 by intra-peritoneal route once per day in the amount of 10 mg/Kg for 10 days. The control group receives the solvent. The effectiveness of the treatment is evaluated by measuring parasitemia and followed by mortality.

L. infantum = experiment: in vivo anti-Leishmania activity, visceral model (L. infantum); parameters: species or system mice; details: L. infantum intravenous, MF 29 10 mg/kg intra-peritoneal once per day for 10 days, Glucantime subcutaneous
Method: (§1) In promastigotes of L. major (2×106) or of L. infantum (10^7) in the stationary phase are inoculated respectively by the subcutaneous route in the rear right paw or by intravenous route in the caudal vein. […] Meglumine antimoniate (Glucantime-Speca™ Rhone-Poulenc, Paris, France) containing 85 mg of pentavalent antimony per ml is administered by subcutaneous route according to the same therapeutic scheme. The control group receives the solvent of MF 29 and of the saline solution at 0.9% by intra-peritoneal route.
(§2) For the cutaneous model, the efficacy of the treatment is evaluated by measuring the edema at the infected paw with the help of an electronic sliding foot (ref. 56371; Polylabo; Strasburg, France), and reported relative to the thickness of the counter-lateral paw. The mice are sacrificed […] after infection. A fragment of derma, of the spleen, of the liver and of the polyptic ganglion draining the lesion are set aside to determine the parasitic load in situ. As to the model of visceral leishmaniosis, the same protocol is carried out on the spleen and the liver. The parasitic load is expressed by the log10 of the number of parasites per gram of tissue.

Plasmodium falciparum = system: Plasmodium falciparum
Text: MF 29 has been evaluated in a test of inhibition of the proliferation of Plasmodium falciparum (mortal species) in an intra-erythrocytic model by measuring the incorporation of hypoxanthine.

L. major = experiment: in vivo anti-Leishmania activity, cutaneous model (L. major in Balb/c mice); details: MF 29 10 mg/kg intra-peritoneal once per day for 10 days, Glucantime subcutaneous, same scheme
Method: as §1, §2

tubuline of beef brain = system: tubuline of beef brain
Method: The anti-microtubular activity of MF 29 is also compared to that of MF 191 and to that of the vinblastine on the assembly of the tubulines of beef brain.
Experiments carried out to measure the capacity of in vitro polymerization of the tubuline were carried out with the help of a spectrophotometer provided with a circulating bath system at 37° C. and an automatic well loader permitting simultaneous measurement of several tests. The optical density which increases with polymerization of the assembly of the tubulines of the brain according to Lebanski et al., 1973, that is induced with the promoter MAP2 is measured at 345 nm every thirty seconds.

[4] = system: L. mexicana intracellular amastigote stage; experiment: activity on the intracellular amastigote stage of L. mexicana in macrophages of Balb/c; details: times greater than GLUCANTIME
Method: as §3

[5] = system: promastigotes of L. mexicana; details: treatment for one hour at 5 μg/ml, sweeping electron microscope

Compound: CCOC(=O)c1ccc(NC(=O)CCl)cc1 [GR 37, 4-chloroacetamido ethyl benzoate]
- cytotoxicity on mouse macrophages relative to the parasite (mouse microphages): 1000 times
- in vitro anti-Leishmania activity (CI50 of Table 1 / FIG. 1, described in words) [1]: extraordinary activity

Compound: CCOC(=O)c1ccccc1NC(=O)CCl [GR 38]
- in vitro anti-Leishmania activity (CI50 of Table 1 / FIG. 1, described in words) [1]: similar

Compound: CCOC(=O)c1cccc(NC(=O)CCl)c1 [MF 29, 3-chloroacetamido ethyl benzoate]
- cytotoxicity for the MRC5 line relative to that obtained on the parasite [2]: 400 times
- mortality ([3]; 10 mg/Kg intra-peritoneal once per day for 10 days, FIG. 5): retardation in the curve of mortality
- mortality ([3]; 20 mg/kg, preliminary results): greater reduction of mortality
- reduction of the parasitic load ([3]; 8th day, versus control group, 10 mg/Kg intra-peritoneal): 70%
- parasitemia (load) ([3]; 8th day, 10 mg/Kg intra-peritoneal once per day for 10 days from four days post-infection): 200 trypomastigotes per 50 fields
- parasitemia versus control group ([3]; 10th day, 10 mg/Kg intra-peritoneal): equivalent for the two groups
- reduction of the parasitic load in the liver (L. infantum): 25%
- reduction of the parasitic load in the spleen (L. infantum): 56%
- CI50 (Plasmodium falciparum; chloroquinine-sensitive strain (FCB1-Columbia)): 0.1 µg/mL (≈ 0.414 µM)
- CI50 (Plasmodium falciparum; strain (Nigerian strain) resistant to chloroquinine): 0.1 µg/mL (≈ 0.414 µM)
- reduction of the hepatic parasitic load (L. major): 96%
- reduction of the polyptic ganglion parasitic load (L. major): 59%
- reduction of the spleen parasitic load (L. major): 97%
- inhibition of polymerization of tubuline of beef brain (tubuline of beef brain; 37° C., MAP2 promoter, FIG. 4C): weak inhibitor
- inhibition of polymerization of tubuline of beef brain at doubled concentration (tubuline of beef brain; doubled concentration of the drug, FIG. 4D): significant inhibition
- activity in the amastigote form relative to GLUCANTIME [4]: 300 times
- effect on the flagella [5]: do not seem to be disturbed
- morphological changes of the cellular body [5]: multiple pores
- in vitro anti-Leishmania activity (CI50 of Table 1 / FIG. 1, described in words) [1]: high activity

Compound: meglumine antimoniate [Glucantime, reference compound]
- reduction of the parasitic load in the liver (L. infantum): 30%
- reduction of the parasitic load in the spleen (L. infantum): 66%
- reduction of the polyptic ganglion parasitic load (L. major): 44%
